This note sets out measurements from patent US20060099712A1, “Correlation of anti-cancer activity of dyes with redox potentials” (Eastman Kodak Company, priority 2004, published 2006).

Where “and” joins values, the source holds several entries; their conditions need not be identical. Identical values can stand only once.

This experiment relates to CX-1 Human Colon Carcinoma. Put plainly: Clonogenic dye screening assay, CX-1 cells (IC50). Type of experiment: cell-based. Further details: CX: unit not given here. Particulars: for CV/CX (selectivity, kill ratio): ratio of IC50 in normal CV-1 line to IC50 in carcinoma CX-1 line; for CX (IC50 in the CX-1 cell line): 3 hrs treatment, colonies after 7-10 days, unit from method b117-118; for CX: CX-1 cells; for CV/CX: selectivity ratio of IC50 values; for CV/C: selectivity ratio, value of 1 where dye inactive. From the text:
CX-1 is a cancerous human colon adenocarcinoma cell line. CV-1 is a non-cancerous control, which is a kidney epithelial cell line from an African green monkey. IC50 is the dye concentration at which 50% of the cells are killed. Selectivity or kill ratio is defined as the ratio of […] at IC50 for both CX-1 and CV-1. A ratio with a high number indicates a high selectivity.
The dyes were screened in two cell lines. CX-1 is a human colon adenocarcinoma cell line. CV-1 is a kidney epithelial cell line from an African green monkey. CV-1 was used as a reference because no normal human epithelial cell line is available for clonogenic assay.
In the initial screen, dyes were examined at six different concentrations to generate a dose response curve. An IC50 value, the concentration at which 50% of the cells are killed, was then calculated. Initially, a dye concentration of 1.0 μg/mL was the highest examined for the CX-1 cell line and 0.005 μg/mL was the lower limit. The corresponding limits on the CV-1 cell line were […].
The screening procedure used a response curve that was determined from eight dye concentrations. The upper and lower limits of CX-1 were 0.32 and 0.0015 μg/mL, respectively, and the corresponding revised limits on CV-1 were 3.2 and 0.025 μg/mL. The screening results were reported by assigning an IC50 value to each dye for the CV-1 and CX-1 cell lines. These values will be referred to herein simply as CV and CX. The most desirable result would be to have a dye that was highly toxic to carcinoma cells but nontoxic to ‘normal’ cells. One measure of this type of selectivity is the ratio of the IC50's in the normal cell line to that in the carcinoma line, CV/CX.
Compounds are screened via an in vitro assay. CV-1 and CX-1 cells are seeded into separate assay plates. The plates are treated with varying concentrations of test compounds, rinsed, and colonies allowed to grow. IC50's are determined and drugs evaluated based on their selectivity and toxicity. Assay Steps: • I. Seeding Cells • II. Weighing • III. Preparation of Solution • IV. Treatment • V. Rinsing and Feeding • VI. Fixing • VII. IC50 Determination I. Seeding Cells
The cells should be seeded 16-30 hours before treatment. The media for CV-1 cells is DME+5% calf serum +5% Nuserum. The media for CX-1 cells is RPMI/DME (50/50)+5% calf serum +5% Nuserum.
(c) number of cells based on 2000 CX-1 cells/well and 1000 CV-1 cells/well. NOTE: Always make enough cell suspension for 1 extra plate to allow for volume loss during transfers.
• (a) For CV-1: 256 ug/ml-256 ul of 1 mg/ml stock +744 ul DMSO • (b) For CX-1: 25.6 ug/ml-100 ul of 256 ug/ml+900 ul DMSO IV. Treatment • 1. Each plate is treated with 4 test compounds, one positive control and one negative control. • 2. Serial dilutions of the compounds are made in the following way:
2 multi-well pipetters are used. One is set for 10 ul and one for 200 ul. Each is equipped with 6 tips spaced such that they fit into the 6 rows of a plate. 390 ul of media is added to the first column of each plate. 10 ul each of 4 compound solutions, a positive and a negative control are taken up and put into the first column of wells. The 200 ul pipetter is then placed in the same wells, pipetted up and down 3 times and two 200 ul aliquots are moved to the next column of wells. This column is pipetted up and down 3 times and 400 ul moved to column 3, etc. The final 400 ul excess from column 8 is discarded.
• 3. Label the plates along the front, each row −1 compound. • 4. Incubate the plates at 37° C. for 3 hrs. V. Rinsing • 1. Prepare several bottles of CX-1 and CV-1 media. • 2. Check for precipitate in first column of each plate and note. • 3. Starting with the plates treated first, rinse several plates at a time by aspirating the treatments and refilling each well with 0.5-1.0 ml of the rinse media. Aspirate and refill 2 more times for a total of 3 rinses. • 4.

Where [1] appears, read: Table XXI, oxathiacarbocyanine nitrogen substituents.

For the compound `CCC(=Cc1sc2ccccc2[n+]1C)C=C1Sc2ccccc2N1C` [drawing 38|M|H|Et|H], the “CV/CX (selectivity, kill ratio)” value is on record as 14.0. For `CC[n+]1c(/C=C/C=C2\[Te]c3ccccc3N2C)sc2ccc3ccccc3c21.[I-]` [Dye D-151], the “CX (IC50 in the CX-1 cell line)” value was determined as 0.007 µg/mL; the “CV/CX (selectivity, kill ratio)” value was 71 and 71.42. Further, the CX (Table XVII, benzotellurazole derivatives) turned out to be 0.007. Also, the CV/CX (Table XVII) is given as 71.4. On to `CCN1/C(=C/C=C/c2sc3ccc(C#N)cc3[n+]2CC)Oc2ccccc21` [drawing 44|E|5-CN|H], for which the “CV/CX (selectivity, kill ratio)” value was >13.3. Consider `CCN1C(=CC=Cc2oc3ccccc3[n+]2CC)Oc2ccccc21` [Dye B-400], for which, for the setting “Table XV, symmetrical dyes”, the CX was found to be 0.10. Moreover, the CV/CX (Table XV) is listed as 30.0.

As for `CCN1C(=CC(=Cc2sc3ccccc3[n+]2CC)SC)Sc2ccccc21` [drawing 38|E|H|SMe|H], the “CX (IC50 in the CX-1 cell line)” value was 0.24 µg/mL and the “CV/CX (selectivity, kill ratio)” value was 1.25. Regarding `CCN1C(=CC=Cc2oc3cc(C)c(Cl)cc3[n+]2CC)Oc2cc(C)c(Cl)cc21` [drawing 45|5-Cl, 6-Me|5-Cl, 6-Me], the “CX (IC50 in the CX-1 cell line)” value was 0.16 µg/mL and the “CV/CX (selectivity, kill ratio)” value came out at 12.5.

With `CCN1/C(=C/C=C/c2sc3ccccc3[n+]2CCC=O)Oc2ccccc21` [drawing 37|CCC═O|Et], the “CX (IC50 in the CX-1 cell line)” value was 0.1 µg/mL and the “CV/CX (selectivity, kill ratio)” value stood at 50.0. In the same order, the values of `CCN1/C(=C/C=C/c2oc3cc4c(cc3[n+]2CC)OCO4)Oc2cc3c(cc21)OCO3` [drawing 45|5,6-OCO—|5,6-OCO—] are 0.08 µg/mL and 5.0. For the compound `CN1C(=CC=Cc2[se]c3ccccc3[n+]2C)[Se]c2ccccc21` [Dye B-405], the CX (Table XV, symmetrical dyes) is reported as 0.008. Moreover, the CV/CX (Table XV) was found to be 7.5.

Regarding `CCN1/C(=C/C=C/c2sc3ccccc3[n+]2CC(=O)N2CCOCC2)Oc2ccccc21` [R1=CC(═0)morpholino, R2=Et], the CX under setting [1] is recorded as >1.0. Also, the CV/C (Table XXI) came out at 1.0.

Consider `CN1/C(=C/C=C/c2sc3ccccc3[n+]2C)Sc2ccc3ccccc3c21` [naphtho/1,2/thiazole (R=M)], for which the CX (Table XVI, unsymmetrical dyes) is <0.005. For the same compound, the CV/CX (Table XVI) is 10.0. `CCN1/C(=C/C=C/c2sc3ccccc3[n+]2CC)Oc2cc(C)c(Cl)cc21` [drawing 44|E|H|5-Cl, 6-Me]: the “CV/CX (selectivity, kill ratio)” value is recorded as 11.4. As for `CCN1/C(=C\C=C\c2sc3ccc4ccccc4c3[n+]2CC)Oc2ccc3ccccc3c21` [drawing 40|E|H], the “CX (IC50 in the CX-1 cell line)” value was found to be 0.3 µg/mL and the “CV/CX (selectivity, kill ratio)” value turned out to be 6.7. In the same order, the values of `CCN1/C(=C/C=C/c2sc3ccc(-c4ccccc4)cc3[n+]2CC)Sc2ccc(-c3ccccc3)cc21` [drawing 41|Et|5-Ph|5-Ph,] are 0.08 µg/mL and 1.25.

For `CCN1/C(=C\C=C\c2sc3ccccc3[n+]2CC(=O)c2ccc(O)c(O)c2)Oc2ccccc21` [drawing 37|CC(═O)Ph-3,4-OH|Et], the “CX (IC50 in the CX-1 cell line)” value was >1.0 µg/mL and the “CV/CX (selectivity, kill ratio)” value is 10.0. `CCN1/C(=C/C=C/c2oc3c(Cl)c(C)c(Cl)cc3[n+]2CC)Oc2c1cc(Cl)c(Cl)c2C` [drawing 45|5,7-Cl, 6-Me|5,6-Cl, 7-Me]: the “CV/CX (selectivity, kill ratio)” value is >10.0. On the same count and under the same terms, then `CCC(=Cc1sc2ccccc2[n+]1CC)C=C1Sc2ccccc2N1CC` [drawing 38|E|H|Et|H], with 10.0.

Regarding `CCN1C(=CC=Cc2oc3ccc(F)cc3[n+]2CC)Oc2ccc(F)cc21` [drawing 45|5-F|5-F], the “CX (IC50 in the CX-1 cell line)” value was “>.32 µg/mL” and the “CV/CX (selectivity, kill ratio)” value is listed as 10.0.

Under setting [1], `CCN1/C(=C/C=C/c2sc3ccccc3[n+]2CCC(=O)N(c2ccccc2)C(C)C)Oc2ccccc21` [R1=CCC(═O)N(iPr)Ph, R2=Et] gave a CX of 0.03. Moreover, the CV/C (Table XXI) was determined as 26.7.
